Earlier results in US10646533B2, “Absorption enhancer for polyphenol” (priority 2015, dated 2020).
Read-outs that look alike come from different tables or passages of the source.

Assays:
[1] = orally ingested, human
[2] = orally ingested, rat

## O=C(O[C@@H]1Cc2c(O)cc(O)cc2O[C@@H]1c1cc(O)c(O)c(O)c1)c1cc(O)c(O)c(O)c1 [epigallocatechin gallate]
[1]
  migration rate into blood: about 2%
[2]
  migration rate into blood: about 2%
